Test results reported in US20260000635A1, “THERAPEUTIC AGENT FOR GLAUCOMA COMPRISING FP AGONIST AND ß BLOCKER” (ONO PHARMACEUTICAL CO., LTD., priority 2017, published 2026).

Tested on: male dogs (TOYO Beagle)
Assay: Intraocular pressure lowering action after instillation in dogs
Assay type: in vivo, dog (TOYO Beagle)
Details: for Time after administration exhibiting maximum intraocular pressure lowering action: 30 μL instillation, measured at 2, 4, 6, 8, 24 h; for Intraocular pressure lowering width 24 hours after administration / Maximum intraocular pressure lowering width: mean ± S.E., n=8, 30 μL instillation, Compound A 3 μg/mL, timolol 0.5% ophthalmic solution; for Maximum intraocular pressure lowering width: maximum of average lowering width over 2, 4, 6, 8, 24 h
Protocol: Compound A and a β-blocker were used as test substances. Compound A was prepared in a 3 μg/mL solution using a vehicle (an aqueous solution containing 0.3 w/v % sodium citrate, 0.5 w/v % polysorbate 80, and 0.8 w/v % sodium chloride). Timolol (trade name: Timoptol (registered trademark) 0.5% ophthalmic solution, Santen Pharmaceutical Co., Ltd.) was used as a β-blocker.
Approximately one hour before administering the vehicle and a test substance to male dogs (TOYO Beagle, 16 to 42 months old at start of use) that have been sufficiently acclimated in advance, intraocular pressure in both eyes was measured, and the intraocular pressure was set as the intraocular pressure value before instillation. Thereafter, a test substance or the vehicle was administered by instillation into the treated eyes in an amount of 30 μL each, and intraocular pressure in both eyes was measured about 2, 4, 6, 8, and 24 hours after the administration. The intraocular pressure was measured by a pneumatic applanation tonometer (Model 30 Classic, Reichert, Inc.) under the local anesthesia after instilling 0.4% oxybuprocaine hydrochloride (Benoxil (registered trademark) ophthalmic solution 0.4%, Santen Pharmaceutical Co., Ltd.), which is a local anesthetic. The measurement was performed until a stable value was obtained three times successively (a difference between continuously obtained measured values was within 0.5 mmHg).
The value obtained by subtracting the intraocular pressure value at each measurement time from the intraocular pressure value before test substance and vehicle administration was defined as the intraocular pressure lowering width, and the average value of the intraocular pressure lowering width of each individual at each measurement time was defined as the average intraocular pressure lowering width. The maximum value of the average intraocular pressure lowering width at each measurement time was defined as the maximum intraocular pressure lowering width. In addition, the average intraocular pressure lowering width 24 hours after administration was defined as the intraocular pressure lowering width 24 hours after administration. Meanwhile, in the case where there are two drug names in a group name, it means the order of administration. For example, the Compound A-timolol group means that Compound A was administered first, and timolol was administered thereafter into the same eye.

SMILES | Time after administration exhibiting maximum intraocular pressure lowering action [h] | Intraocular pressure lowering width 24 hours after administration [mmHg] | Maximum intraocular pressure lowering width [mmHg]
CC(C)(C)NC[C@H](O)COc1nsnc1N1CCOCC1 [Vehicle-timolol, timolol] | 2 | 0.0 ± 0.56 | 2.7 ± 0.56
CC(C)OC(=O)CCC[C@H]1CC[C@@H]2[C@@H](/C=C/[C@@H](O)COc3cc(F)ccc3F)[C@H](O)C[C@@H]2OC1 [Compound A-vehicle, 2-propanyl 4-{(3S,5aR,6R,7R,8aS)-6-[(1E,3R)-4-(2,5-difluorophenoxy)-3-hydroxy-1-buten-1-yl]-7-hydroxyoctahydro-2H-cyclopenta[b]oxepin-3-yl}butanoate] | 6 | 3.5 ± 0.75 | 5.8 ± 0.35
